Results reported in patent US5604214A, “Reduction of boar odor in meat” (Pfizer Inc., priority 1993, dated 1997).

System: boar salivary gland steroid 5-α-reductase (boar 4-ene-5-α-reductase enzyme)
Experiment: Boar steroid 5α-reductase enzyme activity and inhibitor potency assay ([14C]testosterone conversion, boar salivary gland microsomes)
Type: biochemical
Conditions: 500 nM compound, 37° C., 30 minutes
Protocol: Microsomal preparations from boar salivary glands were prepared by the protocol desbribed by Liang, et al. for human prostatic microsomal 5-α-reductase.
Assay for enzyme activity and inhibitor potency.
A constant amount of [^14 C]testosterone (50 to 55 mCi/mmol) in ethanol and varying amounts of potential inhibitor (or no inhibitor i.e. control) in ethanol were deposited in test tubes and concentrated to dryness in vacuo. Assays for boar steroid 5α-reductase enzyme were conducted with a sample of the boar salivary gland 5-α-reductase in 50 mM phosphate buffer, pH 7.5 or in 50 mM citrate buffer at pH 5.0. To each tube was added buffer, 40 μl of microsomal preparation from boar salivary glands (hereinafter boar salivary gland steroid 5-α-reductase) and 20 μl of 20 mM NADPH to a final volume of 0.5 mL.
After incubating the solution at 37° C. for 30 minutes the reaction was quenched by the addition of 4 mL ethyl acetate and 0.25 μmol each of testosterone, 5α-dihydrotestosterone, androstanediol, and androstanedione as carriers. The organic layer was removed to a second test tube and evaporated to dryness in a Speed Vac. The residue was dissolved in 40 μL chloroform, spotted on an individual lane of a 20×20 cm prechannelled silica gel TLC plate (Si 250F-PA, Baker Chemical) and developed twice with acetone:chloroform (1:9). The radiochemical content in the bands of the substrate and the products was determined with a BIOSCAN Imaging Scanner (Bioscan Inc., Washington, D.C.). The percent of recovered radiolabel converted to product was calculated, from which enzyme activity was determined. All incubations were conducted such that no more than 20% of the substrate (testosterone) was consumed.
By following the above procedure in the absence of an inhibitor (i.e. control) a significant formation of 5-α-dihydrotestosterone, and the androstanediols occurred which indicated the presence of a high level of 4-ene-5-α-reductase enzyme activity in the microsomes prepared from the salivary glands of the boar.

[1] = pH 7.5 (50 mM phosphate buffer)

inhibition of the boar 5-α-reductase enzyme (vs. control) [1] | Compound | inhibition of the boar 5-α-reductase enzyme (vs. control) (pH 5 (50 mM citrate buffer))
50% | CC(C)(C)NC(=O)[C@H]1CC[C@H]2[C@@H]3CC[C@H]4NC(=O)C=C[C@]4(C)[C@H]3CC[C@]12C [17β-(N-t-butylcarbamoyl)-4-aza-5α-androst-1-en-3-one] | 
50% | CC(C)(C)NC(=O)[C@H]1CC[C@H]2[C@@H]3CC=C4C=C(C(=O)O)CC[C@]4(C)[C@H]3CC[C@]12C [17β-(N-t-butylcarboxamide)-androst-3,5-diene-3-carboxylic acid] | 

Compound | inhibition of the boar 5-α-reductase enzyme (vs. control) [1] | inhibition of the boar 5-α-reductase enzyme (vs. control) (pH 5 (50 mM citrate buffer))
CC(C)(C)NC(=O)[C@H]1CC[C@H]2[C@@H]3CCc4cc(C(=O)O)ccc4[C@H]3CC[C@]12C [17β-(N-t-butylcarboxamide)-estr-1,3,5(10)triene-3-carboxylic acid] | 80% | ~65%
